Source: PubChem BioAssay (NCI)
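Each compound was tested at five concentrations against cells in 96-well plates for 48 hours. At the GI50, growth is halved. The concentration for full growth arrest is given as TGI.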

Legend:
Assay in all cases: NCI tumour cell line growth inhibition, 48 h
[1] = test system: MCF7 breast
[2] = test system: MDA-MB-231 breast
[3] = test system: LXFL 529 NSCLC
[4] = test system: RXF-631 renal
[5] = test system: P388 leukemia
[6] = test system: P388/ADR leukemia
[7] = test system: SN12K1 renal

Question: Which TGI [1] does the source give for O=c1c2ccccc2[nH]n1Cc1ccccc1 here?
Answer: The TGI was over 100 µM.

Question: And the TGI [2]?
Answer: Its TGI is over 100 µM.

Question: NCCSc1cc(O)c2c(c1N)C(=O)c1ccccc1C2=O was tested. Which TGI [3] did it give?
Answer: Its TGI is over 100 µM.

Question: What about the TGI [4] of the same molecule?
Answer: Its TGI is 97.1 µM.

Question: Which results are given for CC1(C)[C@@H]2CC[C@]1(C)[C@H](OC(=O)/C=C/c1ccccc1)C2?
Answer: TGI [1]: 30.8 µM; TGI [2]: 35 µM

Question: How did the TGI [1] turn out when COc1cccc(/C=N/NC(=O)CSCC(=O)N/N=C/c2cccc(OC)c2OC)c1OC was run?
Answer: The TGI was over 100 µM.

Question: And the TGI [2]?
Answer: Its TGI is over 100 µM.

Question: How did the TGI [1] turn out when O=C1C=CC2OC(c3ccccc3)C(O)C2O1 (stereo unspecified) was run?
Answer: Its TGI is 16.8 µM.

Question: And the TGI [5]?
Answer: The TGI was 6.53 µM.

Question: And the TGI [6]?
Answer: Its TGI is 7.63 µM.

Question: And the TGI [7]?
Answer: The TGI was 14.9 µM.

Question: What does the source list for COc1cc(C(=O)O[C@H](C(=O)NCCCNC(=O)[C@@H](OC(=O)c2cc(OC)cc3c(C)cccc23)[C@]2(C)CO2)[C@]2(C)CO2)c2cccc(C)c2c1?
Answer: GI50 [1]: < 0.01 µM; TGI [1]: 0.219 µM; GI50 [2]: 0.153 µM; TGI [2]: 0.579 µM

Question: COc1ccc2c3c(Nc4cccc(/C(C)=N\O)c4)[nH]c4ccccc4c-3c(N=O)c2c1 was tested. Which GI50 [1] did it give?
Answer: Its GI50 is 73.9 µM.

Question: What about the TGI [1] of the same molecule?
Answer: The TGI was over 100 µM.

Question: What about the GI50 [2] of the same molecule?
Answer: The GI50 was 18.9 µM.

Question: What about the TGI [2] of the same molecule?
Answer: Its TGI is 44.5 µM.

Question: How did the TGI [1] turn out when COc1cc(C2c3cc4c(cc3[C@@H](Nc3cccc(CO)c3)C3COC(=O)[C@H]23)OCO4)cc(OC)c1O (stereo partly specified) was run?
Answer: Its TGI is 26.3 µM.

Question: What about the TGI [5] of the same molecule?
Answer: The TGI was 0.369 µM.

Question: What about the TGI [6] of the same molecule?
Answer: Its TGI is 1.86 µM.

Question: What about the TGI [7] of the same molecule?
Answer: Its TGI is 5.53 µM.

Question: With C=CCN1/C(=C(\C#N)c2nc3ccccc3[nH]2)Sc2c1nc[nH]c2=O as the molecule, how does the TGI [3] read?
Answer: Its TGI is over 100 µM.

Question: For Cc1[nH]c(=O)[nH]c(=O)c1/C=C/C(=O)O (tested in a mixture with another compound), which TGI [1] is on record?
Answer: The TGI was over 625 µM.

Question: And the TGI [5]?
Answer: The TGI was over 625 µM.

Question: And the TGI [6]?
Answer: The TGI was over 625 µM.

Question: And the TGI [7]?
Answer: Its TGI is over 625 µM.

Question: Which TGI [2] does the source give for CC(CC(N)C(=O)O)C(=O)O (stereo unspecified) here?
Answer: Its TGI is over 100 µM.

Question: What does the source list for CCC(C)C(N)C(=O)NC(CC(N)=O)C(=O)NC(CC(C)C)C(=O)NC(CCCCN)C(=O)NC(C)C(=O)NC(CC(C)C)C(=O)NC(C)C(=O)NC(C)C(=O)NC(CC(C)C)C(=O)NC(C)C(=O)NC(CCCCN)C(=O)NC(CCCCN)C(=O)NC(C(=O)NC(CC(C)C)C(N)=O)C(C)CC (stereo unspecified)?
Answer: TGI [3]: 28.7 µM; TGI [4]: 19.5 µM

Question: COc1nc2cccc(C(O)c3ccccc3)c2nc1-c1ccccc1 (stereo unspecified) was tested. Which TGI [1] did it give?
Answer: The TGI was 32 µM.

Question: What about the TGI [2] of the same molecule?
Answer: Its TGI is 31.9 µM.

Question: Which TGI [1] does the source give for OCC1COc2cc(Cl)c(Cl)cc2O1 (stereo unspecified) here?
Answer: The TGI was over 10 µM.

Question: And the TGI [2]?
Answer: The TGI was over 10 µM.

Question: For COc1cc2c3cc1Oc1c(O)c(OC)cc4c1C(Cc1ccc(O)c(c1)Oc1ccc(cc1)CC3N(C)CC2)N(C)CC4 (stereo unspecified), which TGI [3] is on record?
Answer: Its TGI is 17.1 µM.

Question: How did the TGI [2] turn out when N#CC(N=Nc1ccccc1C(=O)O)C(N)=O (stereo unspecified) was run?
Answer: Its TGI is over 100 µM.

Question: How did the TGI [1] turn out when Cc1cccc(Br)[n+]1[O-] was run?
Answer: Its TGI is over 100 µM.

Question: What about the TGI [2] of the same molecule?
Answer: Its TGI is over 100 µM.

Question: For Cc1c[n+]2c3ccccc3c3ccccc3c2s1, which TGI [3] is on record?
Answer: The TGI was 21.6 µM.
